From patent US20090111798A1, “5,6-DIHYDRO-1H-PYRIDIN-2-ONE COMPOUNDS” (priority 2006, published 2009)

Each compound was assayed against NS5B polymerase (Hepatitis C virus genotype 1b, UniProt P26663) (assay: biochemical). Settings: NS5B polymerase inhibition; 20 nM enzyme, 75 min at 28° C.
Description: Compounds were tested for HCV polymerase inhibition. Assays were performed in a 96-well streptavidin-coated FlashPlate using 20 nM enzyme, 0.5μ Ci of [α-^33P]GTP, 0.6 μM GTP, and 250 nM 5′biotinylated oligo (rG13)/poly rC in 20 mM Tris-HCl, pH 7.5, 5 mM MgCl2, 5 mM dithiothreitol, 0.1 g/L bovine serum albumin, and 100 U/mL RNAse inhibitor. The reaction was stopped by aspiration after 75 min at 28° C. and the plate was washed several times. After washing and drying the plate, incorporated radioactivity was counted using a Microbeta scintillation counter. IC50 values were calculated relative to the uninhibited control and inhibition data were fitted to a 4-parameter IC50 equation.

Chain of NS5B polymerase (P26663 2420-3010): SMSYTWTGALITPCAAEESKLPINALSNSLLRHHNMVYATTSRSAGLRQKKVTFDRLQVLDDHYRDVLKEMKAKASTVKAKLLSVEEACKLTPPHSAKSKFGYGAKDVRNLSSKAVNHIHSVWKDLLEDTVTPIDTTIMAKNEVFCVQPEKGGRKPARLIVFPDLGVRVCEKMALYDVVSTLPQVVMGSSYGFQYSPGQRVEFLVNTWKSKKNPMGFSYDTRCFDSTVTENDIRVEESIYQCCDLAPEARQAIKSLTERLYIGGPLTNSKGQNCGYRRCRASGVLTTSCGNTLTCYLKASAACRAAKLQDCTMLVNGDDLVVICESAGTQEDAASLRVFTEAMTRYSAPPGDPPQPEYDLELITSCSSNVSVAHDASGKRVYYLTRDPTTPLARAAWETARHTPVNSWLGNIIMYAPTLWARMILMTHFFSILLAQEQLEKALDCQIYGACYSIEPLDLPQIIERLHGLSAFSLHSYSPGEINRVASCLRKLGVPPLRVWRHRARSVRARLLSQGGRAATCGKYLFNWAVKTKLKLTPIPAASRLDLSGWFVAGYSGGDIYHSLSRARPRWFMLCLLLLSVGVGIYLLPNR

Row | SMILES | IC50 [µM]
1 | O=C1C(C2=NS(=O)(=O)c3ccccc3N2)=C(O)C2CCCC2N1Cc1ccc(F)cc1 (mixture of isomers) [Example 51] | 0.1 to 1
2 | CS(=O)(=O)Nc1ccc2c(c1)S(=O)(=O)N=C(C1=C(O)[C@@H]3CCC[C@@H]3N(Cc3ccccn3)C1=O)N2 (relative stereo) [Example 4, cis-N-[3-(4-Hydroxy-2-oxo-1-pyridin-2-ylmethyl-2,4-a,5,6,7,7a-hexahydro-1H-[1]pyrindin-3-yl)-1,1-dioxo-1,4-dihydro-1λ^6-benzo[1,2,4]thiadiazin-7-yl]-methanesulfonamide] | 0.1 to 1
3 | CS(=O)(=O)Nc1ccc2c(c1)S(=O)(=O)N=C(C1=C(O)[C@@H]3CCC[C@@H]3N(Cc3ccc(F)cn3)C1=O)N2 (relative stereo) [Example 5, cis-N-{3-[1-(5-Fluoro-pyridin-2-ylmethyl)-4-hydroxy-2-oxo-2,4-a,5,6,7,7a-hexahydro-1H-[1]pyrindin-3-yl]-1,1-dioxo-1,4-dihydro-1λ^6-benzo[1,2,4]thiadiazin-7-yl}-methanesulfonamide] | 0.1 to 1
4 | CN(C)CCN1C(=O)C(C2=NS(=O)(=O)c3cc(NS(C)(=O)=O)ccc3N2)=C(O)[C@@H]2CCC[C@@H]21 (relative stereo) [Example 6] | 1 to 100
5 | CS(=O)(=O)Nc1ccc2c(c1)S(=O)(=O)N=C(C1=C(O)[C@@H]3CCC[C@@H]3N(Cc3cccc(F)c3)C1=O)N2 (relative stereo) [Example 8] | < 0.02
6 | CS(=O)(=O)Nc1ccc2c(c1)S(=O)(=O)N=C(C1=C(O)[C@@H]3CCC[C@@H]3N(CCc3ccccc3)C1=O)N2 (relative stereo) [Example 9, cis-N-[3-(4-Hydroxy-2-oxo-1-phenethyl-2,4-a,5,6,7,7a-hexahydro-1H-[1]pyrindin-3-yl)-1,1-dioxo-1,4-dihydro-1λ^6-benzo[1,2,4]thiadiazin-7-yl]-methanesulfonamide] | 0.1 to 1

The next lines start with the values.

Row | IC50 [µM] | SMILES
7 | 0.02 to 0.1 | O=C1C(C2=NS(=O)(=O)c3cc(C4CCCS4(=O)=O)ccc3N2)=C(O)[C@@H]2CCC[C@@H]2N1Cc1ccc(F)cc1 (mixture of isomers) [Example 45, (4aR,7aS)-3-[7-(1,1-Dioxo-tetrahydro-1λ^6-thiophen-2-yl)-1,1-dioxo-1,4-dihydro-1λ^6-benzo[1,2,4]thiadiazin-3-yl]-1-(4-fluoro-benzyl)-4-hydroxy-1,4a,5,6,7,7a-hexahydro-[1]pyrindin-2-one]
8 | 0.02 to 0.1 | CS(=O)(=O)Nc1ccc2c(c1)S(=O)(=O)N=C(C1=C(O)C3CCCCCC3N(CCC3CC3)C1=O)N2 (mixture of isomers) [Example 58, N-{3-[1-(2-Cyclopropyl-ethyl)-4-hydroxy-2-oxo-2,4a,5,6,7,8,9,9a-octahydro-1H-cyclohepta[b]pyridin-3-yl]-1,1-dioxo-1,4-dihydro-1λ^6-benzo[1,2,4]thiadiazin-7-yl}-methanesulfonamide]
9 | < 0.02 | CS(=O)(=O)Nc1ccc2c(c1)S(=O)(=O)N=C(C1=C(O)[C@@H]3CCC[C@@H]3N(Cc3ccc(F)cc3)C1=O)N2 (relative stereo) [Example 1, cis-N-{3-[1-(4-Fluoro-benzyl)-4-hydroxy-2-oxo-2,4-a,5,6,7,7a-hexahydro-1H-[1]pyrindin-3-yl]-1,1-dioxo-1,4-dihydro-1λ^6-benzo[1,2,4]thiadiazin-7-yl}-methanesulfonamide]
10 | 0.02 to 0.1 | CS(=O)(=O)Nc1ccc2c(c1)S(=O)(=O)N=C(C1=C(O)[C@@H]3CCC[C@@H]3N(Cc3ccccc3)C1=O)N2 (relative stereo) [Example 7, cis-N-[3-(1-Benzyl-4-hydroxy-2-oxo-2,4-a,5,6,7,7a-hexahydro-1H-[1]pyrindin-3-yl)-1,1-dioxo-1,4-dihydro-1λ^6-benzo[1,2,4]thiadiazin-7-yl]-methanesulfonamide]
11 | 1 to 100 | CS(=O)(=O)Nc1ccc2c(c1)S(=O)(=O)N=C(C1=C(O)[C@@H]3CCC[C@@H]3N(C3CCCC3)C1=O)N2 (relative stereo) [Example 10, cis-N-[3-(1-Cyclopentyl-4-hydroxy-2-oxo-2,4-a,5,6,7,7a-hexahydro-1H-[1]pyrindin-3-yl)-1,1-dioxo-1,4-dihydro-1λ^6-benzo[1,2,4]thiadiazin-7-yl]-methanesulfonamide]
